Measured values as given in patent publication EP0726761B1, “MICROPARTICULAR PHARMACEUTICAL COMPOSITIONS IN MICELLAR FORM” (ISOMED, Inc., priority 1993, dated 1995).

Columns and labels:
intestinal membranes = details: Tagesson et al., Gut 26:369 (1985); cited from earlier work
P388 mouse leukemia = P388 mouse leukemia model, survival time; type: in vivo; details: 1.25 mg/kg intraperitoneally on Study Day-1; female mice inoculated with P388 on Day-0
Experimental: The P388 mouse leukemia model was prepared according to the method described by Daoud and Juliano in Cancer Res. 48: 5518 (1986). Female mice were intraperitoneally inoculated with P388 mouse leukemia (1 million cells/0.1 ml) on Study Day-0. The study drugs were intraperitoneally injected on Study Day-1. […]

## sn-1-acyl-3-glycerophosphorylcholine [lyso-PC]
Intestinal membranes
  concentration inducing histopathological damage to intestinal membranes: 0.01-1 mM

## CC[C@]1(O)C[C@H]2CN(CCc3c([nH]c4ccccc34)[C@@](C(=O)OC)(c3cc4c(cc3OC)N(C=O)[C@H]3[C@@](O)(C(=O)OC)[C@H](OC(C)=O)[C@]5(CC)C=CCN6CC[C@]43[C@@H]65)C2)C1 [Vincristin, vincristin]
P388 mouse leukemia
  MEAN SURVIVAL TIME: 21.2 days
